Read-outs that look alike come from different tables or passages of the source.
Legend:
M1 muscarinic receptor = molecular target: T1, M1 muscarinic receptor (Homo sapiens, UniProt P11229); experiment: Functional mobilization of intracellular calcium (FLIPR) in M1-CHO cells; assay type: cell-based
T1 construct: expressed in transfected cells; host or cells: CHO (M1-CHO)
T1 sequence (P11229 1-460): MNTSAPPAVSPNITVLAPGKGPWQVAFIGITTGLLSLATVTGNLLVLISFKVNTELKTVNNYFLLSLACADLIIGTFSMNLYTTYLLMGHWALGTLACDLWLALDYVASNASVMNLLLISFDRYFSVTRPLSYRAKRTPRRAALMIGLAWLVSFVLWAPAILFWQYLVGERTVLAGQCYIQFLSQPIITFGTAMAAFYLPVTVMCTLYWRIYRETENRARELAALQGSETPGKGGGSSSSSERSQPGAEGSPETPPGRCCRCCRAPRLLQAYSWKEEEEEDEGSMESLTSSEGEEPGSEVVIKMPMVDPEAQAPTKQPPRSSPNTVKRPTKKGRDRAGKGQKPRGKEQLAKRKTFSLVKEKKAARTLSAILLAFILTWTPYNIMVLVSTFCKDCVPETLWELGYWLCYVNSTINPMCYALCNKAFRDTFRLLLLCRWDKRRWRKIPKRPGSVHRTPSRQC
Summary of the method: (§1)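 CHO cells stably expressing human M1 or M4 receptor were loaded with Fluo-3 AM (or Calcium 3 dye) in Hepes-buffered saline, pH 7.4, with 1 mM probenecid, 0.5% final DMSO. Agonist mode: compound added directly; antagonist mode: 15 min preincubation before carbachol at EC80. FLIPR fluorescence recorded 60 sec.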

M4 muscarinic receptor = molecular target: T2, M4 muscarinic receptor (Homo sapiens, UniProt P08173); experiment: Functional mobilization of intracellular calcium (FLIPR) in M4-CHO cells; assay type: cell-based
T2 construct: expressed in transfected cells; host or cells: CHO (M4-CHO)
T2 sequence (P08173 1-479): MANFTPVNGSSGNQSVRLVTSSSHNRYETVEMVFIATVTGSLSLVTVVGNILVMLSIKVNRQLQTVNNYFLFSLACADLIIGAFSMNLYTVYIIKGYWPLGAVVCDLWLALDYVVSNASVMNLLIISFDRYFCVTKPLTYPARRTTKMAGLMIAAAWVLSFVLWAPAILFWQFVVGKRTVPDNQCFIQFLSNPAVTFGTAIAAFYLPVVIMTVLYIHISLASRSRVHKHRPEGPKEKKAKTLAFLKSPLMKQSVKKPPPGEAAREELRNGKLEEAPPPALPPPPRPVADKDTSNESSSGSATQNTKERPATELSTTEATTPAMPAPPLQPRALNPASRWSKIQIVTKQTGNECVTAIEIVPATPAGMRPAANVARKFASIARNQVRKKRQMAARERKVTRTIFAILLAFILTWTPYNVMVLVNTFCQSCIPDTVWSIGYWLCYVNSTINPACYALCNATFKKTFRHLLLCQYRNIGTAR
Summary of the method: as §1

[1] = M1 receptor, calcium mobilization
[2] = M1 receptor, calcium mobilization, read-out: M1 Efficacy
[3] = M4 receptor, calcium mobilization
[4] = M4 receptor, calcium mobilization, read-out: M4 Efficacy
[5] = Table 4, 100% efficacy is the maximum response obtained with the Carbachol control
[6] = Table 4, M1 receptor, calcium mobilization (FLIPR)
[7] = Table 4, M4 receptor, calcium mobilization (FLIPR)
[8] = Table 4, modulating M1 receptor
[9] = Table 4, modulating M4 receptor

| SMILES | M1 Activity (M1 muscarinic receptor; [1]) | Emax (M1 muscarinic receptor; [2]) [%] | M4 Activity (M4 muscarinic receptor; [3]) | Emax (M4 muscarinic receptor; [4]) [%] | Emax (M1 muscarinic receptor; [5]) [%] | M1 Activity (M1 muscarinic receptor; [6]) | Emax (M4 muscarinic receptor; [5]) [%] | M4 Activity (M4 muscarinic receptor; [7]) | M1 Activity (M1 muscarinic receptor; [8]) | M4 Activity (M4 muscarinic receptor; [9]) |
| --- | --- | --- | --- | --- | --- | --- | --- | --- | --- | --- |
| CCOC(=O)N1CCC(N2CCC3(CC2)CN(C(C)=O)c2ccc(Cl)cc23)CC1 [compound 141] | xxx (activity was measured to be less than 0.1 μM) | > 85 | xx (activity was measured to be between 0.1 μM and 1.0 μM) | > 85 | – | – | – | – | – | – |
| CN(C)C(=O)N1CC2(CCN(C3CCN(C(=O)[C@@H]4CCCO4)CC3)CC2)c2cc(F)ccc21 [compound 1006] | – | – | – | – | 25 to 100 | x (activity was measured to be greater than 5.0 μM) | < 25 | x (activity was measured to be greater than 5.0 μM) | – | – |
| O=C(C1CC1)N1CC2(CCN(C3CC4CCC(C3)N4C(=O)O[C@@H]3CCOC3)CC2)c2cc(F)ccc21 (some centres unmarked) [compound 87] | xxx (activity was measured to be less than 0.1 μM) | 65 to 85 | x (activity was measured to be greater than 1.0 μM) | < 65 | – | – | – | – | – | – |
| CCOC(=O)N1CCC(N2CCC3(CC2)CN(C(=O)N2CCOCC2)c2ccc(F)cc23)CC1 [compound 290] | xxx (activity was measured to be less than 0.1 μM) | < 65 | x (activity was measured to be greater than 1.0 μM) | < 65 | – | – | – | – | – | – |
| COc1ccccc1C(=O)N1CCC(N2CCC3(CC2)CN(C(=O)N(C)C)c2ccc(F)cc23)CC1 [compound 446] | – | – | – | – | 25 to 100 | – | < 25 | – | x (activity was measured to be greater than 5.0 μM) | x (activity was measured to be greater than 5.0 μM) |
| CC(=O)N1CC2(CCN(CC3=CCC4C[C@@H]3C4(C)C)CC2)c2cc(F)ccc21 [compound 845] | – | – | – | – | < 25 | x (activity was measured to be greater than 5.0 μM) | < 25 | x (activity was measured to be greater than 5.0 μM) | – | – |
| CCOC(=O)N1CCC(CN2CCC3(CC2)CN(C(C)=O)c2ccc(C(F)(F)F)cc23)CC1 [compound 994] | – | – | – | – | 25 to 100 | xxx (activity was measured to be less than 2.0 μM) | 25 to 100 | xxx (activity was measured to be less than 2.0 μM) | – | – |
| CC#CCOC(=O)N1CCC(N2CCC3(CC2)CN(C(C)=O)c2ccc(F)cc23)CC1 [compound 102] | xxx (activity was measured to be less than 0.1 μM) | 65 to 85 | xx (activity was measured to be between 0.1 μM and 1.0 μM) | 65 to 85 | – | – | – | – | – | – |
| CC(=O)NC1CCC2(CCN(C3CCCCC3)CC2)c2ccccc21 (centres unmarked) [compound 716] | – | – | – | – | 25 to 100 | – | 25 to 100 | – | xxx (activity was measured to be less than 2.0 μM) | xxx (activity was measured to be less than 2.0 μM) |
| CCOC(=O)N1CCC(N2CCC3(CC2)CN(C2CCCC2=O)c2ccc(F)cc23)CC1 (centres unmarked) [compound 756] | – | – | – | – | 25 to 100 | – | 25 to 100 | – | xxx (activity was measured to be less than 2.0 μM) | xxx (activity was measured to be less than 2.0 μM) |
| CCOC(=O)N1CCC(N2CCC3(CC2)CN(C(=O)CC(C)(C)C)c2ccc(F)cc23)CC1 [compound 194] | xxx (activity was measured to be less than 0.1 μM) | > 85 | x (activity was measured to be greater than 1.0 μM) | 65 to 85 | – | – | – | – | – | – |
| CCOC(=O)N1CCC(N2CCC3(CC2)CN(C(=O)OCC(C)C)c2ccc(F)cc23)CC1 [compound 30] | xxx (activity was measured to be less than 0.1 μM) | > 85 | xxx (activity was measured to be less than 0.1 μM) | > 85 | – | – | – | – | – | – |
| CN(C)C(=O)N1CC2(CCN(C[C@H]3CCN(c4cnccn4)C3)CC2)c2cc(F)ccc21 [compound 660] | – | – | – | – | > 100 | – | > 100 | – | xxx (activity was measured to be less than 2.0 μM) | xxx (activity was measured to be less than 2.0 μM) |
| O=C(N[C@H]1CC2(CCN(CCC3CC4CC[C@@H]3C4)CC2)c2ccccc21)N1CCCC1 (some centres unmarked) [compound 726] | – | – | – | – | < 25 | – | < 25 | – | x (activity was measured to be greater than 5.0 μM) | x (activity was measured to be greater than 5.0 μM) |
| Fc1ccc2c(c1)C1(CCN(C3CC4CCC3O4)CC1)CN2 (centres unmarked) [compound 705] | – | – | – | – | < 25 | – | < 25 | – | x (activity was measured to be greater than 5.0 μM) | x (activity was measured to be greater than 5.0 μM) |
| CCOC(=O)N1CCC(N2CCC3(CC2)CN(c2cccc(OC)c2)c2ccc(F)cc23)CC1 [compound 838] | – | – | – | – | 25 to 100 | xxx (activity was measured to be less than 2.0 μM) | 25 to 100 | xxx (activity was measured to be less than 2.0 μM) | – | – |
| CN(C)C(=O)N[C@H]1CC2(CCN(C[C@@H]3C[C@H]4C=C[C@H]3C4)CC2)c2ccccc21 [compound 438] | – | – | – | – | 25 to 100 | – | < 25 | – | xxx (activity was measured to be less than 2.0 μM) | xxx (activity was measured to be less than 2.0 μM) |
| CC(=O)N1CC2(CCN(C[C@@H]3CCN(C(=O)OC(C)C)C3)CC2)c2ccccc21 [compound 996] | – | – | – | – | < 25 | x (activity was measured to be greater than 5.0 μM) | < 25 | x (activity was measured to be greater than 5.0 μM) | – | – |
| CCOC(=O)N1C2CCC1CC(N1CCC3(CC1)CNc1ccc(Cl)cc13)C2 (centres unmarked) [compound 351] | xxx (activity was measured to be less than 0.1 μM) | 65 to 85 | xx (activity was measured to be between 0.1 μM and 1.0 μM) | > 85 | – | – | – | – | – | – |
| COC(=O)N1CC2(CCN(C3CC4CCC(C3)N4C(=O)OCC(C)C)CC2)c2cc(F)ccc21 (centres unmarked) [compound 287] | xx (activity was measured to be between 0.1 μM and 1.0 μM) | < 65 | x (activity was measured to be greater than 1.0 μM) | < 65 | – | – | – | – | – | – |
| CCOC(=O)N1CCC(N2CCC3(CC2)CN(C(=O)N(CC)CC)c2ccc(F)cc23)CC1 [compound 223] | x (activity was measured to be greater than 1.0 μM) | < 65 | x (activity was measured to be greater than 1.0 μM) | < 65 | – | – | – | – | – | – |
| CN(C)C(=O)N1CC2(CCN(C[C@@H]3CCN(C(=O)OCC4CC4)C3)CC2)c2cc(F)ccc21 [compound 584] | – | – | – | – | 25 to 100 | – | 25 to 100 | – | xxx (activity was measured to be less than 2.0 μM) | xxx (activity was measured to be less than 2.0 μM) |
| C#CC(=O)N1CCC(N2CCC3(CC2)CN(C(=O)N(C)C)c2ccc(F)cc23)CC1 [compound 574] | – | – | – | – | 25 to 100 | – | 25 to 100 | – | xx (activity was measured to be between 2.0 μM and 5.0 μM) | xxx (activity was measured to be less than 2.0 μM) |
